In US7709494B2, “4,5-diphenyl-pyrimidinyl-oxy or -mercapto substituted carboxylic acids, method for the production and use thereof as medicaments” (Sanofi-Aventis, priority 2006, dated 2010):

Target: T1, GPCR GPR40 (Homo sapiens, UniProt O14842)
T1 construct: expressed in transfected cells; host or cells: HEK293
Test: In vitro FLIPR assay with recombinant cells which express the GPCR GPR40 (agonist-induced intracellular Ca2+ change)
Type: cell-based
Conditions: recombinant HEK293 cells expressing GPR40; 100 μM test substance; percentage change relative to control (0%: no test substance; 100%: 10 μM reference agonist linoleic acid)
Method: In vitro FLIPR assay with recombinant cells which express the GPCR GPR40
Function-testing assays were carried out by means of the FLIPR technique (“Fluorescence Imaging Plate Reader”, Molecular Devices Corp.). For this purpose, agonist-induced changes in the intracellular concentration of Ca^2+ in recombinant HEK293 cells which expressed the GPCR. GPR40 were determined.
For the investigations, cells were seeded in 96-well microtiter plates (60 000 cells/well) and allowed to grow overnight. The medium was removed and the cells were incubated in buffer which contained the fluorescent dye fluo-4. After this loading with dye, the cells were washed, test substance was added, and changes in the intracellular Ca^2+ concentration were measured in the FLIPR instrument. Results have been presented as percentage change relative to the control (0%: no test substance added; 100%: 10 μM reference agonist linoleic acid added).

T1 sequence (O14842 whole entry): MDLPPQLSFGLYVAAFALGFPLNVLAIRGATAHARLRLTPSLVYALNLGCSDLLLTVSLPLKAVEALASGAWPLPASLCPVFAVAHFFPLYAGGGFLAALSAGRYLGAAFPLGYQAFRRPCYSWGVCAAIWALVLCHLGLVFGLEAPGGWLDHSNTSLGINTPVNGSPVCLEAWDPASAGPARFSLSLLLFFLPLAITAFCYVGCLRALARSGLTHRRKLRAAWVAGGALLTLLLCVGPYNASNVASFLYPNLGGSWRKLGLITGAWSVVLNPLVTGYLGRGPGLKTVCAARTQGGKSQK

Row | % activation @ 100 μM [%] | Molecule
1 | 76 | O=C(O)[C@H]1CC[C@@H](COc2ncc(-c3ccccc3)c(-c3ccccc3)n2)C1 (relative stereo) [Example 3, cis-3-(4,5-Diphenylpyrimidin-2-yloxymethyl)cyclopentanecarboxylic acid]
2 | 74 | O=C(O)[C@H]1CCC[C@@H](COc2ncc(-c3ccccc3)c(-c3ccccc3)n2)C1 [Example 1, (1S,3R)-3-(4,5-Diphenylpyrimidin-2-yloxymethyl)cyclohexanecarboxylic acid]
3 | 66 | O=C(O)[C@H]1CCCC(Oc2ncc(-c3ccccc3)c(-c3ccccc3)n2)C1 (stereo partly drawn) [Example 6, (1S)-3-(4,5-Diphenylpyrimidin-2-yloxy)cyclohexanecarboxylic acid]
4 | 101 | O=C(O)C1CC1CCCCCSc1ncc(-c2ccccc2)c(-c2ccccc2)n1 (stereo not drawn) [Example 7, 2-[5-(4,5-Diphenylpyrimidin-2-ylsulfanyl)pentyl]cyclopropanecarboxylic acid]
5 | 101 | O=C(O)C1CC1CCCCOc1ncc(-c2ccccc2)c(-c2ccccc2)n1 (stereo not drawn) [Example 9, 2-[4-(4,5-Diphenylpyrimidin-2-yloxy)butyl]cyclopropanecarboxylic acid]
6 | 5 | CCC(CCC1CC1C(=O)O)Oc1ncc(-c2ccccc2)c(-c2ccccc2)n1 (stereo not drawn) [Example 10, 2-[3-(4,5-Diphenylpyrimidin-2-yloxy)pentyl]cyclopropanecarboxylic acid]
7 | 91 | cis-(4,5-Diphenylpyrimidin-2-yloxymethyl)cyclohexanecarboxylic acid [Example 2]

Row | Molecule | % activation @ 100 μM [%]
8 | O=C(O)C1CCC(COc2ncc(-c3ccccc3)c(-c3ccccc3)n2)CC1 (mixture of isomers) [Example 4, Cis/trans-4-(4,5-diphenylpyrimidin-2-yloxymethyl)cyclohexanecarboxylic cid] | 96
9 | O=C(O)CC12CC3CC(C1)CC(Sc1ncc(-c4ccccc4)c(-c4ccccc4)n1)(C3)C2 [Example 5, [3-(4,5-Diphenylpyriidin-2-ylsulfanyl)adamantan-1-yl]acetic acid] | 64
